Molecular target: STAT3 (Homo sapiens, UniProt P40763)
Assay: STAT3 HiBiT degradation assay in transfected A549 cells
Assay type: cell-based
Set-up: expressed in transfected cells; host or cells: A549
Conditions: A549, 24 h; read-out: STAT3 HiBiT A549 degradation 24 h: Average external-Abs DC50
Summary of the method: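 Degradation read as HiBiT-tagged STAT3 luminescence (Nano-Glo lytic reagent, 10 min, room temperature) following 24 h compound treatment of transfected A549 cells at 3-fold, 10 points. Percent remaining signal computed against controls and fitted with a four-parameter logistic; DC50 reported as letter bins (A <0.01 to D >1.0 µM).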

Sequence of STAT3 (P40763 whole entry): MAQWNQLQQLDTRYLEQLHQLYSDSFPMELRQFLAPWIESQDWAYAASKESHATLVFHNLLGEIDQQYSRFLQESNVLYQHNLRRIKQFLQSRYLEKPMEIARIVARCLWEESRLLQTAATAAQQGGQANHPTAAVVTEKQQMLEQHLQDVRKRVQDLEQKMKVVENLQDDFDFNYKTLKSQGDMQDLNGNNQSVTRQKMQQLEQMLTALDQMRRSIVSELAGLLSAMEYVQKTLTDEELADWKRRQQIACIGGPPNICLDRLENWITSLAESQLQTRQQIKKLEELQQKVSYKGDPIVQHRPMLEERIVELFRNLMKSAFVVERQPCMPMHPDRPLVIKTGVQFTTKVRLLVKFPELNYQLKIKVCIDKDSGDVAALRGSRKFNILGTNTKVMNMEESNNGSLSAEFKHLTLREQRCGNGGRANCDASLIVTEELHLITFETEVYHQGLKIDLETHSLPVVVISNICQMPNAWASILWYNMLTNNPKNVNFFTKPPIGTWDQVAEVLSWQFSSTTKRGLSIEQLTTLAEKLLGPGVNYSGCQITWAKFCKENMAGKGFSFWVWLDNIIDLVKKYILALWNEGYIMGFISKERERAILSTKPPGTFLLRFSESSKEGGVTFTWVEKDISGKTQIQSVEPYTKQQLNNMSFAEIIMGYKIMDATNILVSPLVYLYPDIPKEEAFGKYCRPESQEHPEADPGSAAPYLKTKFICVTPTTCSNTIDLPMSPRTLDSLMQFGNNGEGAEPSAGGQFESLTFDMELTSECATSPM

| SMILES | DC50 [nM] |
| --- | --- |
| Cn1c(=O)n(C2CCC(=O)NC2=O)c2ccc([C@H]3CC[C@@H](CCCC(=O)N4CC[C@H]5CC[C@@H](C(=O)N[C@@H](CCC(N)=O)C(=O)NC(c6ccccc6)c6ccccc6)N5C(=O)[C@@H](NC(=O)c5cc6cc(C(=O)P(=O)(O)O)ccc6[nH]5)C4)CC3)cc21 (stereo partly drawn) [Compound I-274, 2-[[(5S,8S,10aR)-8-[[(1S)-3-carbamoyl-1-(diphenylmethylcarbamoyl)propyl]carbamoyl]-6-oxo-3-[4-[(1s,4r)-4-[1-(2,6-dioxopiperidin-3-yl)-3-methyl-2-oxo-1,3-benzodiazol-5-yl]cyclohexyl]butanoyl]-octahydropyrrolo[1,2-a][1,5]diazocin-5-yl]carbamoyl]-1H-indole-5-carbonylphosphonic acid] | 100 to 1000 |
| Cn1c(=O)n(C2CCC(=O)NC2=O)c2ccc(CCCCCCc3cc4c5c(c3)C[C@@H](C(=O)N[C@@H](CCC(N)=O)c3ccccn3)N5C(=O)[C@@H](NC(=O)c3cc5cc(C(=O)P(=O)(O)O)ccc5[nH]3)CC4)cc21 (stereo partly drawn) [Compound I-277, 2-[[(2S,11S)-2-[[(1S)-3-carbamoyl-1-(pyridin-2-yl)propyl]carbamoyl]-6-[6-[1-(2,6-dioxopiperidin-3-yl)-3-methyl-2-oxo-1,3-benzodiazol-5-yl]hexyl]-12-oxo-1-azatricyclo[6.4.1.0^[4,13]]trideca-4(13),5,7-trien-11-yl]carbamoyl]-1H-indole-5-carbonylphosphonic acid] | 10 to 100 |
| Cn1c(=O)n(C2CCC(=O)NC2=O)c2ccc([C@H]3CC[C@H](CCC(=O)N4CC[C@H]5CC[C@@H](C(=O)N[C@@H](CCC(N)=O)C(=O)NC(c6ccccc6)c6ccccc6)N5C(=O)[C@@H](NC(=O)c5cc6cc(C(=O)P(=O)(O)O)ccc6[nH]5)C4)CC3)cc21 (stereo partly drawn) [Compound I-278, 2-[[(5S,8S,10aR)-8-[[(1S)-3-carbamoyl-1-(diphenylmethylcarbamoyl)propyl]carbamoyl]-6-oxo-3-[3-[(1r,4r)-4-[1-(2,6-dioxopiperidin-3-yl)-3-methyl-2-oxo-1,3-benzodiazol-5-yl]cyclohexyl]propanoyl]-octahydropyrrolo[1,2-a][1,5]diazocin-5-yl]carbamoyl]-1H-indole-5-carbonylphosphonic acid] | 100 to 1000 |
| Cc1ncsc1-c1ccc([C@H](C)NC(=O)[C@@H]2C[C@@H](O)CN2C(=O)[C@@H](NC(=O)CCCCCc2cccc(OC[C@H](CCC(N)=O)NC(=O)[C@@H]3CCCN3C(=O)[C@H](CC(C)C)NC(=O)c3cc4cc(C(=O)P(=O)(O)O)ccc4[nH]3)c2F)C(C)(C)C)cc1 [Compound I-279] | < 10 |
| Cc1ncsc1-c1ccc([C@H](C)NC(=O)[C@@H]2C[C@@H](O)CN2C(=O)[C@@H](NC(=O)CCCCc2cccc(NC(=O)[C@H](CCC(N)=O)NC(=O)[C@@H]3Cc4cccc5c4N3C(=O)C(CC(=O)c3cc4ccc(C(=O)P(=O)(O)O)cc4[nH]3)CC5)c2)C(C)(C)C)cc1 (stereo partly shown) [Compound I-280] | 10 to 100 |
| Cc1ncsc1-c1ccc([C@H](C)NC(=O)[C@@H]2C[C@@H](O)CN2C(=O)[C@@H](NC(=O)OCCCCc2cccc(OC[C@H](CCC(N)=O)NC(=O)[C@@H]3Cc4cccc5c4N3C(=O)[C@@H](NC(=O)c3cc4cc(C(=O)P(=O)(O)O)ccc4[nH]3)CC5)c2F)C(C)(C)C)cc1 [Compound I-281] | < 10 |

Same assay, conditions: read-out: STAT3 HiBiT A549 degradation 24 h: Average external-Abs DC50; A549, 24 h

| SMILES | DC50 [nM] |
| --- | --- |
| Cc1ncsc1-c1ccc([C@H](C)NC(=O)[C@@H]2C[C@@H](O)CN2C(=O)[C@@H](NC(=O)CCCCc2cccc(OC[C@H](CCC(N)=O)NC(=O)[C@@H]3CCCN3C(=O)[C@H](CC(C)C)NC(=O)c3cc4cc(C(=O)P(=O)(O)O)ccc4[nH]3)c2F)C(C)(C)C)cc1 [Compound I-276, diammonium 2-[[(2S)-1-[(2S)-2-[[(2S)-4-carbamoyl-1-[2-fluoro-3-(4-[[(2S)-1-[(2S,4R)-4-hydroxy-2-[[(1S)-1-[4-(4-methyl-1,3-thiazol-5-yl)phenyl]ethyl]carbamoyl]pyrrolidin-1-yl]-3,3-dimethyl-1-oxobutan-2-yl]carbamoyl]butyl)phenoxy]butan-2-yl]carbamoyl]pyrrolidin-1-yl]-4-methyl-1-oxopentan-2-yl]carbamoyl]-1H-indole-5-carbonylphosphonate] | < 10 |
